{"source": "patent US20230220065A1", "about": "“ANTIBODIES TO INTERLEUKIN-1BETA AND USES THEREOF” (ACADEMIA SINICA, priority 2020, published 2023)", "key": {"[1]": {"test_system": "IL-1β-induced NF-κB signaling in HEK-blue IL-1β cells", "test": "In vitro IL-1β neutralization assay in HEK-blue IL-1β reporter cells (SEAP)", "format": "cell-based, human", "description": "FIG. 1 illustrates inhibitory effect on IL-1β-induced NF-κB signaling of different selected IgGs from generic human phage-display libraries in HEK-blue IL-1β cells. (A) IL-1β bound to its receptor IL-1RI and its receptor accessory protein IL-1RAcP to form the IL-1β/IL-1RI/IL-1RAcP ternary complex. IL-1β induces downstream signaling pathways, including NF-κB activation (IκB degradation) and AP-1 activation (phosphorylation of JNK, p38 and ERK). (B) Ten IgGs bound to human IL-1β were selected from the generic human phage-display library.\nFIG. 4 illustrates the comparison of IL-1β neutralizing abilities in different IL-1β-neutralizing antibodies. IL-1β was diluted from 1500 to 0 pM. Each antibody was added at a 5 nM concentration with different concentrations of IL-1β. HEK-blue-IL-1β cells were used to detect the IgG inhibitory effects of IL-1β signaling. The binding curve was fitted by a nonlinear regression curve to obtain the IC50.\nFIG. 8 illustrates binding affinities and inhibitory effects of IgG variants selected from optimized IgG26 phage-display libraries. […] (B) Inhibitory effects on IL-1β-mediated downstream signaling were examined in 30 pM IL-1β-stimulated HEK-blue reporter cells. […]\nAfter 16 hours, the inhibitory effect of IL-1β-induced signaling was monitored by SEAP assay. […]"}, "[2]": {"target": "recombinant human IL-1β (117-269 amino acids, without the pro-peptide region) (human) (UniProt P01584)"}, "[3]": {"target": "recombinant human IL-1β (R&D systems) (human) (UniProt P01584)"}, "human IL-1β-induced IL-6": {"test_system": "human IL-1β-induced IL-6", "test": "Cytokine biomarker assay: human IL-1β-induced serum IL-6 in mice", "format": "in vivo", "settings": "0.2 mg/kg antibody intravenously, human IL-1β 240 ng/mouse intraperitoneally, male C57BL/6 mice", "experimental": "FIG. 5 illustrates cytokine biomarker assay. (A) The concentration of injected IgG1 at different time courses to compare the stability of IgG in male C57BL/6 mouse serum. […] Then, the mice were injected intraperitoneally with human IL-1β (240 ng/200 μL/mouse). Two hours after the injection, the mice were restrained, and blood was collected to detect the serum IL-6 level in the mice. IgG26AW treatment can inhibit the 40% induction of IL-6, which responds to human IL-1β boosting.\nThen, the mice were injected intraperitoneally with recombinant human IL-1β (R&D systems) 240 ng/200 μL/mouse; then, 2.5 hours after the injection (peak IL-6 response time), the mice were restrained, and blood was collected via a facial vein with a lancet. Serum mouse IL-6 levels were measured using a Quantikine ELISA Kit (R&D System) according to the manufacturer's protocol.\nTo determine whether various rodent and primate disease models could be used to test the in vivo efficacy of IgG26AW, the ability of IgG26AW to bind a number of species orthologs of IL-1β was measured by SPR. […] This affinity is not sufficient to test IgG26AW efficacy in mouse disease models. […] Moreover, concentrations of IgGs after the injection in the serum were evaluated in different time courses."}}, "note": "“Also recorded” adds a separate entry of the source.", "data": [{"compound": "O=C(OC[C@H]1O[C@@H](OC(=O)c2cc(O)c(O)c(O)c2)[C@H](OC(=O)c2cc(O)c(O)c(O)c2)[C@@H](OC(=O)c2cc(O)c(O)c(O)c2)[C@@H]1OC(=O)c1cc(O)c(O)c(O)c1)c1cc(O)c(O)c(O)c1", "note": "[PGG, 1,2,3,4,6-Penta-O-Galloyl-β-D-Glucose]", "values": [{"measurement": "NF-κB signaling inhibition of low dose IgG26AW combined with PGG", "setting": "[1]; 69 pM IgG26AW combined with 50 μM PGG, IL-1β 588 to 0 pM (FIG. 14)", "value": "efficiently inhibits the NF-κB signaling as similar as 690 pM IgG26AW can do"}, {"measurement": "effect of PGG cotreatment with IgG26AW on IL-1β induced NF-κB signaling", "setting": "[1]; 75 pM IL-1β, IgG26AW 69 nM to 0 nM, PGG 30 μM or 50 μM (FIG. 13)", "value": "synergistically reduce NF-kB signaling; also recorded: dose-dependent inhibitory effect on NF-κB signaling"}]}, {"compound": "canakinumab (antibody)", "values": [{"measurement": "IL-1β concentration whose NF-κB signal is half inhibited by 5 nM antibody (HEK-blue IL-1β cells, SEAP assay; called IC50 in the legend)", "setting": "[2]", "value": 0.925, "unit": "nM"}, {"measurement": "human IL-1β-induced systemic IL-6 expression in C57BL/6 mice (serum mouse IL-6, ELISA)", "setting": "[3]", "value": 47, "unit": "%"}]}, {"compound": "canakinumab: marketed anti-IL-1β antibody (Novartis), synthesized from patent US20090232803", "values": [{"measurement": "inhibition of human IL-1β-induced systemic (serum) IL-6", "setting": "human IL-1β-induced IL-6", "value": 47, "unit": "%"}]}]}
